Experimental data taken from patent publication US11208400B2, “Substituted 6-(1H-pyrazol-1-yl)pyrimidin-4-amine derivatives and uses thereof” (Bayer Aktiengesellschaft, priority 2016, dated 2021).

Biological target: T1, human Npt2a (Homo sapiens, UniProt Q06495)
T1 construct: expressed in transfected cells
T1 sequence (Q06495 1-639): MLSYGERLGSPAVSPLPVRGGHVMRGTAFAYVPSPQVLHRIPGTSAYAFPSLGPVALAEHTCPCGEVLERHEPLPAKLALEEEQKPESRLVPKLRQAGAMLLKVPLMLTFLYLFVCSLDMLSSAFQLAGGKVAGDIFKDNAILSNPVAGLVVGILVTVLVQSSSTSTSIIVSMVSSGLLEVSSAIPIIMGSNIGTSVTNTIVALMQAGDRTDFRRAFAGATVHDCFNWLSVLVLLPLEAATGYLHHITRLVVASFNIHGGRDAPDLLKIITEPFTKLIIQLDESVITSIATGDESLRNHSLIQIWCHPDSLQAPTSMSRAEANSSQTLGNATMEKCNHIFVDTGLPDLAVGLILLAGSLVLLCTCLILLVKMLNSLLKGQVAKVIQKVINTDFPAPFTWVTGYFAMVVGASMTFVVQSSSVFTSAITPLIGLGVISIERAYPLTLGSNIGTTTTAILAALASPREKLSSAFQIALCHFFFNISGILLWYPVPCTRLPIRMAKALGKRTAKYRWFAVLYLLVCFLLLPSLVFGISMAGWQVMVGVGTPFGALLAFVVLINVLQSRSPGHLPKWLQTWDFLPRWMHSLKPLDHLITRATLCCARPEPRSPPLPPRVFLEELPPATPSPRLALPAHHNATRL
Assay: Npt2a activity cell based assay, membrane potential dye, CHO T-REx hNpt2a cells
Conditions: doxycycline-induced, depolarization by sodium phosphate influx, average or median values if tested more than once
In short: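 Doxycycline-induced (0.5 μg/mL, 24 h) CHO T-REx cells were loaded with membrane potential dye in sodium-free NHE buffer (pH 7.4) and exposed to compound (50 μM–1 nM, 5 min, room temperature).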

Row | Structure (SMILES) | IC50
1 | Cc1cc(C)n(-c2cc(Nc3nn(C)c(-c4ccc(F)cc4)c3CN3CC(C(F)(F)F)C3)ncn2)n1 [Example 275, 6-(3,5-dimethyl-1H-pyrazol-1-yl)-N-[5-(4-fluorophenyl)-1-methyl-4-{[3-(trifluoromethyl)azetidin-1-yl]methyl}-1H-pyrazol-3-yl]pyrimidin-4-amine] | 1050 nM
2 | CCOC(=O)c1c(C)nn(-c2cc(Nc3c(C)c(-c4ccc(C(F)(F)F)cc4)nn3CC3CC3)ncn2)c1C [Example 285, ethyl 1-[6-({1-(cyclopropylmethyl)-4-methyl-3-[4-(trifluoromethyl)phenyl]-1H-pyrazol-5-yl}amino)pyrimidin-4-yl]-3,5-dimethyl-1H-pyrazole-4-carboxylate] | 140 nM
3 | CCc1c(Nc2cc(-n3nc(C)c(CC4(O)CC4)c3C)ncn2)nn(C)c1-c1ccc(F)cc1 [Example 256, 1-{[1-(6-{[4-ethyl-5-(4-fluorophenyl)-1-methyl-1H-pyrazol-3-yl]amino}pyrimidin-4-yl)-3,5-dimethyl-1H-pyrazol-4-yl]methyl}cyclopropanol] | 35 nM
4 | CCc1nn(C)c(Nc2cc(-n3nc(C)cc3C)ncn2)c1-c1ccc(F)cc1 [Example 35, 6-(3,5-dimethyl-1H-pyrazol-1-yl)-N-[3-ethyl-4-(4-fluorophenyl)-1-methyl-1H-pyrazol-5-yl]pyrimidin-4-amine] | 1400 nM
5 | CCc1c(Nc2cc(-n3cc(C(F)(F)F)cn3)ncn2)nn(C)c1-c1ccc(F)cc1 [Example 250, N-[4-ethyl-5-(4-fluorophenyl)-1-methyl-1H-pyrazol-3-yl]-6-[4-(trifluoromethyl)-1H-pyrazol-1-yl]pyrimidin-4-amine] | 21 nM
6 | CCc1c(-c2ccc(F)cc2)nn(CC2CC2)c1Nc1cc(-n2nc(C)c(Cl)c2C(F)F)ncn1 [Example 148, 6-[4-chloro-5-(difluoromethyl)-3-methyl-1H-pyrazol-1-yl]-N-[1-(cyclopropylmethyl)-4-ethyl-3-(4-fluorophenyl)-1H-pyrazol-5-yl]pyrimidin-4-amine] | 80 nM
7 | CCc1c(Nc2cc(-n3cc4c(n3)CCCC4)ncn2)n[nH]c1-c1ccc(F)cc1 [Example 18, N-[4-ethyl-5-(4-fluorophenyl)-1H-pyrazol-3-yl]-6-(4,5,6,7-tetrahydro-2H-indazol-2-yl)pyrimidin-4-amine] | 110 nM
8 | COCCn1nc(-c2ccc(C(F)F)cc2)c(C)c1Nc1cc(-n2nc(C)c(Cl)c2C)ncn1 [Example 537, 6-(4-chloro-3,5-dimethyl-1H-pyrazol-1-yl)-N-{3-[4-(difluoromethyl)phenyl]-1-(2-methoxyethyl)-4-methyl-1H-pyrazol-5-yl}pyrimidin-4-amine] | 26 nM
9 | Cc1c(-c2ccc(F)cc2)nn(CC2CC2)c1Nc1cc(-n2nc3c(c2C)C(C)(O)CC3)ncn1 (single isomer, unassigned) [Example 516, 2-(6-{[1-(cyclopropylmethyl)-3-(4-fluorophenyl)-4-methyl-1H-pyrazol-5-yl]amino}pyrimidin-4-yl)-3,4-dimethyl-2,4,5,6-tetrahydrocyclopenta[c]pyrazol-4-ol] | 31 nM
10 | CC(=O)Oc1c(C)nn(-c2cc(Nc3c(C)c(-c4ccc(F)cc4)nn3CC3CC3)ncn2)c1C [Example 497, 1-(6-{[1-(cyclopropylmethyl)-3-(4-fluorophenyl)-4-methyl-1H-pyrazol-5-yl]amino}pyrimidin-4-yl)-3,5-dimethyl-1H-pyrazol-4-yl acetate] | 3 nM
11 | Cc1cc(C)n(-c2cc(Nc3nn(C)c(-c4ccc(F)cc4)c3C#N)ncn2)n1 [Example 23, 3-{[6-(3,5-dimethyl-1H-pyrazol-1-yl)pyrimidin-4-yl]amino}-5-(4-fluorophenyl)-1-methyl-1H-pyrazole-4-carbonitrile] | 315 nM
12 | CSc1cc(-c2nn(CC3CC3)c(Nc3cc(-n4nc(C)cc4C)ncn3)c2C)ccc1F [Example 430, N-{1-(cyclopropylmethyl)-3-[4-fluoro-3-(methylsulfanyl)phenyl]-4-methyl-1H-pyrazol-5-yl}-6-(3,5-dimethyl-1H-pyrazol-1-yl)pyrimidin-4-amine] | 45 nM
13 | CCOC(=O)c1c(C)nn(-c2cc(Nc3n[nH]c(-c4ccccc4)c3Cl)ncn2)c1C [Example 51, ethyl 1-{6-[(4-chloro-5-phenyl-1H-pyrazol-3-yl)amino]pyrimidin-4-yl}-3,5-dimethyl-1H-pyrazole-4-carboxylate] | 100 nM
14 | CCc1c(Nc2cc(-n3cc4c(n3)CN(C(=O)OC(C)(C)C)CC4)ncn2)n[nH]c1-c1ccc(F)cc1 [Example 26, tert-butyl 2-(6-{[4-ethyl-5-(4-fluorophenyl)-1H-pyrazol-3-yl]amino}pyrimidin-4-yl)-2,4,5,7-tetrahydro-6H-pyrazolo[3,4-c]pyridine-6-carboxylate] | 460 nM
15 | COc1c(-c2ccc(C#N)cc2)nn(C)c1Nc1cc(-n2nc(C)c(C(O)C(F)(F)F)c2C)ncn1 (racemic) [Example 425, (±)-4-{5-[(6-{3,5-dimethyl-4-[2,2,2-trifluoro-1-hydroxyethyl]-1H-pyrazol-1-yl}pyrimidin-4-yl)amino]-4-methoxy-1-methyl-1H-pyrazol-3-yl}benzonitrile] | 415 nM
16 | CCc1c(Nc2cc(-n3nc(C)cc3C)ncn2)nn(C)c1-c1ccc(F)cc1 [Example 1, 6-(3,5-dimethyl-1H-pyrazol-1-yl)-N-[4-ethyl-5-(4-fluorophenyl)-1-methyl-1H-pyrazol-3-yl]pyrimidin-4-amine] | 4.48 nM
17 | CCc1c(-c2ccc(F)cc2)nn(CC2CC2)c1Nc1cc(-n2nc(C)cc2C)ncn1 [Example 121, N-[1-(cyclopropylmethyl)-4-ethyl-3-(4-fluorophenyl)-1H-pyrazol-5-yl]-6-(3,5-dimethyl-1H-pyrazol-1-yl)pyrimidin-4-amine] | < 1.6 nM
18 | COc1c(-c2ccc(F)cc2)nn(CC2CC2)c1Nc1cc(-n2nc(C)c(C(C)=O)c2C)ncn1 [Example 317, 1-[1-(6-{[1-(cyclopropylmethyl)-3-(4-fluorophenyl)-4-methoxy-1H-pyrazol-5-yl]amino}pyrimidin-4-yl)-3,5-dimethyl-1H-pyrazol-4-yl]ethanone] | 450 nM
19 | COc1c(C)nn(-c2cc(Nc3nn(C)c(-c4ccc(F)cc4)c3OC(F)F)ncn2)c1C [Example 470, N-[4-(difluoromethoxy)-5-(4-fluorophenyl)-1-methyl-1H-pyrazol-3-yl]-6-(4-methoxy-3,5-dimethyl-1H-pyrazol-1-yl)pyrimidin-4-amine] | 3 nM
20 | Cc1nn(-c2cc(Nc3nn(C)c(-c4ccc(F)cc4)c3OC(F)F)ncn2)c(C)c1C(C)(C)O [Example 500, 2-[1-(6-{[4-(difluoromethoxy)-5-(4-fluorophenyl)-1-methyl-1H-pyrazol-3-yl]amino}pyrimidin-4-yl)-3,5-dimethyl-1H-pyrazol-4-yl]propan-2-ol] | 52 nM
21 | COCCn1nc(-c2ccc(F)cc2)c(C)c1Nc1cc(-n2nc(C)c(C(F)(F)F)c2C)ncn1 [Example 524, 6-[3,5-dimethyl-4-(trifluoromethyl)-1H-pyrazol-1-yl]-N-[3-(4-fluorophenyl)-1-(2-methoxyethyl)-4-methyl-1H-pyrazol-5-yl]pyrimidin-4-amine] | 8 nM
22 | Cc1c(-c2ccc(F)cc2)nn(CC2CC2)c1Nc1cc(-n2cc3c(n2)CN(C(=O)OC(C)(C)C)C3)ncn1 [Example 433, tert-butyl 2-(6-{[1-(cyclopropylmethyl)-3-(4-fluorophenyl)-4-methyl-1H-pyrazol-5-yl]amino}pyrimidin-4-yl)-2,6-dihydropyrrolo[3,4-c]pyrazole-5(4H)-carboxylate] | 1500 nM
23 | Cc1cc(C)n(-c2cc(Nc3c(C#N)c(-c4ccc(F)cc4)nn3C)ncn2)n1 [Example 24, 5-{[6-(3,5-dimethyl-1H-pyrazol-1-yl)pyrimidin-4-yl]amino}-3-(4-fluorophenyl)-1-methyl-1H-pyrazole-4-carbonitrile] | 310 nM
24 | Cc1cc(C)n(-c2cc(Nc3c(C)c(-c4ccc(C(F)(F)F)cc4)nn3CC3CC3)ncn2)n1 [Example 306, N-{1-(cyclopropylmethyl)-4-methyl-3-[4-(trifluoromethyl)phenyl]-1H-pyrazol-5-yl}-6-(3,5-dimethyl-1H-pyrazol-1-yl)pyrimidin-4-amine] | 60 nM
25 | Cc1cc(C)n(-c2cc(Nc3c(C)c(-c4ccc(C#N)cc4)nn3CC(F)F)ncn2)n1 [Example 248, 4-[1-(2,2-difluoroethyl)-5-{[6-(3,5-dimethyl-1H-pyrazol-1-yl)pyrimidin-4-yl]amino}-4-methyl-1H-pyrazol-3-yl]benzonitrile] | 182 nM
26 | Cc1nn(-c2cc(Nc3nn(CCC4CC4)c(-c4ccc(C#N)cc4)c3C)ncn2)c(C(F)F)c1Cl [Example 239, 4-[3-({6-[4-chloro-5-(difluoromethyl)-3-methyl-1H-pyrazol-1-yl]pyrimidin-4-yl}amino)-1-(2-cyclopropylethyl)-4-methyl-1H-pyrazol-5-yl]benzonitrile] | 290 nM
27 | CCc1c(-c2ccc(F)cc2)nn(CC2CC2)c1Nc1cc(-n2nc(C)c(-c3nnc(C)o3)c2C)ncn1 [Example 225, N-[1-(cyclopropylmethyl)-4-ethyl-3-(4-fluorophenyl)-1H-pyrazol-5-yl]-6-[3,5-dimethyl-4-(5-methyl-1,3,4-oxadiazol-2-yl)-1H-pyrazol-1-yl]pyrimidin-4-amine] | 8 nM
